Reference: BindingDB's records for doi:10.3109/14756366.2012.658786 (Yeungnam University, 2013)

What follows are compounds tested against Fatty acid synthase (Gallus gallus, UniProt P12276) (assay: FAS Inhibitory Assay). Conditions: pH 7; 37 °C.
Sequence of Fatty acid synthase (P12276 whole entry): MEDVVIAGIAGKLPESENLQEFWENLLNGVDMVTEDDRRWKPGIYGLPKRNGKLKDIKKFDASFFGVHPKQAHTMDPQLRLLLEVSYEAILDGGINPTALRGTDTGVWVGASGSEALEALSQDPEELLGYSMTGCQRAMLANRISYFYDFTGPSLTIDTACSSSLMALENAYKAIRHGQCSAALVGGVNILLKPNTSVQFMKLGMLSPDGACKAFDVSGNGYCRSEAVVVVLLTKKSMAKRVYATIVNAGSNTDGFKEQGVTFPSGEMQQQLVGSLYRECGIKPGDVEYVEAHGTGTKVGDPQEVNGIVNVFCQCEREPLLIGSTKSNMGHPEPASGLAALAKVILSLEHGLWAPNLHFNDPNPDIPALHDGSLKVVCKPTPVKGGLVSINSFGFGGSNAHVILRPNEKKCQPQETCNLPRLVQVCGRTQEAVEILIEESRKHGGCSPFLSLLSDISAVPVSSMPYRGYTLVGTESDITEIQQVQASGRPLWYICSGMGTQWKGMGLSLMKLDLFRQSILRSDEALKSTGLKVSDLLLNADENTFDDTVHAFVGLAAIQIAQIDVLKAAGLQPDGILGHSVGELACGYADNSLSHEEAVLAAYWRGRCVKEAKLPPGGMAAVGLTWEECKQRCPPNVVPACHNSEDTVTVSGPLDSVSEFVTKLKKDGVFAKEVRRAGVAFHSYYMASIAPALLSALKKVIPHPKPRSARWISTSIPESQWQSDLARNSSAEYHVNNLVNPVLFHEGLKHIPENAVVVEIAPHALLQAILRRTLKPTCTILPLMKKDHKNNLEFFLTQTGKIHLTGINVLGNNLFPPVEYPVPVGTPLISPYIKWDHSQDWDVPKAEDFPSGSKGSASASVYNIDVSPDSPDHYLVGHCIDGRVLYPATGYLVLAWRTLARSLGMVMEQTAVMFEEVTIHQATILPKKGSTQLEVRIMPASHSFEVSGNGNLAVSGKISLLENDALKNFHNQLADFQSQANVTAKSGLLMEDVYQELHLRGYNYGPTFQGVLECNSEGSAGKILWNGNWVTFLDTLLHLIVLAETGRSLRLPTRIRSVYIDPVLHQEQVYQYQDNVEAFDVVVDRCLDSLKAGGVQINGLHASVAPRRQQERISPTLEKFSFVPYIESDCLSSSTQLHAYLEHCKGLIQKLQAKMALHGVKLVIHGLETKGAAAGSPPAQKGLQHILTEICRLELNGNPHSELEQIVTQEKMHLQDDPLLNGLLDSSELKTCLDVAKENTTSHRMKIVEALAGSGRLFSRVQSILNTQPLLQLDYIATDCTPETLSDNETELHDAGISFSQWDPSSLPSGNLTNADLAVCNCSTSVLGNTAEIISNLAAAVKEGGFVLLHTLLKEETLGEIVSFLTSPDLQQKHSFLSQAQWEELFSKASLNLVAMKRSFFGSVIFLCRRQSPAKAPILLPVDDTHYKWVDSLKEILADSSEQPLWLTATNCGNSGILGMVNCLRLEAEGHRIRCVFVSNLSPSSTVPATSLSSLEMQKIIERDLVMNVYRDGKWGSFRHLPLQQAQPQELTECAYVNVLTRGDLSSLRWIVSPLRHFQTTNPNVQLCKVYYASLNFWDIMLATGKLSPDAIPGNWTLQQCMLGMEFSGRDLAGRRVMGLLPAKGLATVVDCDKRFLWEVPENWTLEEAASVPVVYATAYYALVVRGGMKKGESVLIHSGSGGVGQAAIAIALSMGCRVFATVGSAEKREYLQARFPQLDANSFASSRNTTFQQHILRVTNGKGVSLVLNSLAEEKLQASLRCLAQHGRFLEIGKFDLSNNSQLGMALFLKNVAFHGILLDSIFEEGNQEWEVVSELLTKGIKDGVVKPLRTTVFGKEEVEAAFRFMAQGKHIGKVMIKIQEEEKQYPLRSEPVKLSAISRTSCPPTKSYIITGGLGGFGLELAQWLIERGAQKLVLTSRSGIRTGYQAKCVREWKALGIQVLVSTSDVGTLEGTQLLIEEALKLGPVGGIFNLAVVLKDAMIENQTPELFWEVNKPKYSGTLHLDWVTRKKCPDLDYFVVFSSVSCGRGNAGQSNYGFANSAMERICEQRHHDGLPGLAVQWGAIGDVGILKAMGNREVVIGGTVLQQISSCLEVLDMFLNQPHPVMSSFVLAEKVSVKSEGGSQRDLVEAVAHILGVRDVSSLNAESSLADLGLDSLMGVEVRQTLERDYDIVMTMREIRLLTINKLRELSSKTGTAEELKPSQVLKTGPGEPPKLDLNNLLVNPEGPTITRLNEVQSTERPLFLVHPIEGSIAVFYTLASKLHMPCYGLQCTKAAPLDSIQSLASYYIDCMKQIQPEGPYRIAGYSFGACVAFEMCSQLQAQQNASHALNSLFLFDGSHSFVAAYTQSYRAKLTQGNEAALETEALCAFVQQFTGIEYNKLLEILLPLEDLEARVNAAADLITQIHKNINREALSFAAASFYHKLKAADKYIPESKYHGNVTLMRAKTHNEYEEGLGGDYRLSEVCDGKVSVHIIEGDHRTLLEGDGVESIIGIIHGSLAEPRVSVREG
Procedure: To each microtube (final volume: 100 μL), FAS was added (20-30 μg protein) in a buffer containing 100 mM potassium phosphate (pH 7.0), 2.5 mM dithiothreitol and 2.0 mM EDTA with or without test compounds. The mixtures were preincubated at 37°C for 60 min and the reaction was started by the addition of a substrate mixture containing 0.25 mM NADPH, 0.4 nmol of malonyl CoA and 0.02 μCi of [3H] acetyl CoA. Following incubation at 37°C for 10 min, the reaction was terminated with 60% HClO4. Fatty acids were extracted with 1 mL of hexane and incorporation of radioactivity into the fatty acids was assessed by scintillation counting [Na et al., Bioorg. Med. Chem. Lett., 16:4738-4742].
`C/C=C/C/C=C/CCC(=O)[C@H]1O[C@H]1C(N)=O` was tested, and the IC50 was 13 µM. `O=c1cc(-c2ccc(O)c(O)c2)oc2cc(O)cc(O)c12` [2-(3,4-dihydroxyphenyl)-5,7-dihydroxy-4H-chromen-4-one] showed an IC50 of 62.5 µM. Work on `CCCCCC/C=C\CCCCCCCCCc1cccc(O)c1C(=O)O` [6-[10'(Z)-heptade-cenyljsalicylic acid] yielded an IC50 of 10.5 µM. `CCCCCC/C=C\CCCCCCCc1cccc(O)c1C(=O)O` [6-{8(Z)-pentadecenyl}salicylic acid] was tested, and the IC50 was 17.1 µM. `CCCCC/C=C/C/C=C/CCCCCCCc1cccc(O)c1C(=O)O` [Ginkgolic acid C17:2 (2)] gave an IC50 of 9.2 µM.
